Experimental data: patent publication US9474790B2, “Stable, protracted GLP-1/glucagon receptor co-agonists for medical use” (Novo Nordisk A/S, priority 2013, dated 2016)
Numbered stars: 1 amine (or outer) side, 2 acyl side, 3 side chain; on linkers, the order of the positions; unused ones are H or OH. Square brackets hold non-standard residues; d marks the D form. Side chains are listed from the residue outwards. Peptide text beside a SMILES is read from it. * marks the point of attachment. C18 diacid = O=C(O)CCCCCCCCCCCCCCCCC(=O)*; γGlu = O=C(O)[C@H](CCC(=O)[*:2])N[*:1]; Ac4c = NC1(C(=O)O)CCC1; AEEA = NCCOCCOCC(=O)O; Aib = CC(C)(N)C(=O)O

Assay: Thioflavin T (ThT) fibrillation assay for physical stability
Type: physicochemical
Settings: 250 μM in 10 mM HEPES buffer, pH 7.5, 37° C., shaking 960 rpm
In short: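 Peptide at 250 μM in 10 mM HEPES pH 7.5 with 1 μM ThT, at 37° C with 960 rpm orbital shaking. Fluorescence (ex 444/em 485 nm) read every 20 min after 10 min pre-incubation; sigmoidal fit gives lag time (t0−2τ) and kapp (1/τ). Recovery is RP-HPLC peptide in the centrifuged, 0.22 μm-filtered supernatant as % of initial.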

`CC(C)C[C@H](NC(=O)[C@H](Cc1ccc(O)cc1)NC(=O)[C@H](CCCCN)NC(=O)[C@H](CO)NC(=O)[C@H](CC(C)C)NC(=O)[C@H](CC(=O)O)NC(=O)[C@H](CO)NC(=O)[C@@H](NC(=O)[C@H](Cc1ccccc1)NC(=O)[C@@H](NC(=O)CNC(=O)[C@H](Cc1c[nH]cn1)NC(=O)C(C)(C)NC(=O)[C@@H](N)Cc1c[nH]cn1)[C@@H](C)O)[C@@H](C)O)C(=O)N[C@@H](CCC(=O)O)C(=O)N[C@@H](CO)C(=O)N[C@@H](CCCNC(=N)N)C(=O)N[C@@H](CCCNC(=N)N)C(=O)N[C@@H](C)C(=O)N[C@@H](CCCNC(=N)N)C(=O)N[C@@H](CCC(=O)O)C(=O)N[C@@H](Cc1ccccc1)C(=O)N[C@H](C(=O)N[C@@H](CCC(N)=O)C(=O)N[C@@H](Cc1c[nH]c2ccccc12)C(=O)N[C@@H](CC(C)C)C(=O)N[C@@H](CC(C)C)C(=O)N[C@@H](CCCCNC(=O)CC[C@H](NC(=O)CC[C@H](NC(=O)COCCOCCNC(=O)COCCOCCNC(=O)CC[C@H](NC(=O)CCCCCCCCCCCCCCCCC(=O)O)C(=O)O)C(=O)O)C(=O)O)C(=O)N[C@H](C(N)=O)[C@@H](C)O)C(C)C` [Example 33, N^ε28-[(4S)-4-carboxy-4-[[(4S)-4-carboxy-4-[[2-[2-[2-[[2-[2-[2-[[(4S)-4-carboxy-4-(17-carboxyheptadecanoylamino)butanoyl]amino]ethoxy]ethoxy]acetyl]amino]ethoxy]ethoxy]acetyl]amino]butanoyl]amino]butanoyl]-[Aib2,His3,Leu10,Glu15,Arg20,Glu21,Leu27,Lys28]-Glucagon amide] (H-H[Aib]HGTFTSDLSKYLESRRAREFVQWLLK([γGlu-γGlu-AEEA-AEEA-γGlu-C18 diacid])T-NH2; N-terminus assumed) and `CC(C)C[C@H](NC(=O)[C@H](Cc1ccc(O)cc1)NC(=O)[C@H](CCCCN)NC(=O)[C@H](CO)NC(=O)[C@H](CC(C)C)NC(=O)[C@H](CC(=O)O)NC(=O)[C@H](CO)NC(=O)[C@@H](NC(=O)[C@H](Cc1ccccc1)NC(=O)[C@@H](NC(=O)CNC(=O)[C@H](Cc1c[nH]cn1)NC(=O)C(C)(C)NC(=O)[C@@H](N)Cc1c[nH]cn1)[C@@H](C)O)[C@@H](C)O)C(=O)N[C@@H](CCC(=O)O)C(=O)N[C@@H](CO)C(=O)N[C@@H](CCCNC(=N)N)C(=O)N[C@@H](CCCNC(=N)N)C(=O)N[C@@H](C)C(=O)N[C@@H](CCCNC(=N)N)C(=O)N[C@@H](CCC(=O)O)C(=O)N[C@@H](Cc1ccccc1)C(=O)N[C@H](C(=O)N[C@@H](CCC(N)=O)C(=O)N[C@@H](Cc1c[nH]c2ccccc12)C(=O)N[C@@H](CC(C)C)C(=O)N[C@@H](CC(C)C)C(=O)N[C@@H](CCCCNC(=O)CC[C@H](NC(=O)COCCOCCNC(=O)COCCOCCNC(=O)CC[C@H](NC(=O)CC[C@H](NC(=O)CCCCCCCCCCCCCCCCC(=O)O)C(=O)O)C(=O)O)C(=O)O)C(=O)N[C@H](C(N)=O)[C@@H](C)O)C(C)C` [Example 30, N^ε28-[(4S)-4-carboxy-4-[[2-[2-[2-[[2-[2-[2-[[(4S)-4-carboxy-4-[[(4S)-4-carboxy-4-(17-carboxyheptadecanoylamino)butanoyl]amino]butanoyl]amino]ethoxy]ethoxy]acetyl]amino]ethoxy]ethoxy]acetyl]amino]butanoyl]-[Aib2,His3,Leu10,Glu15,Arg20,Glu21,Leu27,Lys28]-Glucagon amide] (H-H[Aib]HGTFTSDLSKYLESRRAREFVQWLLK([γGlu-AEEA-AEEA-γGlu-γGlu-C18 diacid])T-NH2; N-terminus assumed) are the same in THT assay Lag time (Ex. 76): 45 h for the first, 45 h for the second.

`CC(C)C[C@H](NC(=O)[C@H](Cc1ccc(O)cc1)NC(=O)[C@H](CCCCN)NC(=O)[C@H](CO)NC(=O)[C@H](CC(C)C)NC(=O)[C@H](CC(=O)O)NC(=O)[C@H](CO)NC(=O)[C@@H](NC(=O)[C@H](Cc1ccccc1)NC(=O)[C@@H](NC(=O)CNC(=O)[C@H](CCC(N)=O)NC(=O)C(C)(C)NC(=O)[C@@H](N)Cc1c[nH]cn1)[C@@H](C)O)[C@@H](C)O)C(=O)N[C@@H](CCC(=O)O)C(=O)N[C@@H](CO)C(=O)N[C@@H](CCCNC(=N)N)C(=O)N[C@@H](CCCNC(=N)N)C(=O)N[C@@H](C)C(=O)N[C@@H](CCCNC(=N)N)C(=O)N[C@@H](CCC(=O)O)C(=O)N[C@@H](Cc1ccccc1)C(=O)N[C@H](C(=O)N[C@@H](CCC(N)=O)C(=O)N[C@@H](Cc1c[nH]c2ccccc12)C(=O)N[C@@H](CC(C)C)C(=O)N[C@@H](CC(C)C)C(=O)N[C@@H](CCCCNC(=O)CC[C@H](NC(=O)COCCOCCNC(=O)COCCOCCNC(=O)CC[C@H](NC(=O)CC[C@H](NC(=O)CCCCCCCCCCCCCCCCC(=O)O)C(=O)O)C(=O)O)C(=O)O)C(=O)N[C@H](C(N)=O)[C@@H](C)O)C(C)C` [Example 20, N^ε29-[(4S)-4-carboxy-4-[[2-[2-[2-[[2-[2-[2-[[(4S)-4-carboxy-4-[[(4S)-4-carboxy-4-(17-carboxyheptadecanoylamino)butanoyl]amino]butanoyl]amino]ethoxy]ethoxy]acetyl]amino]ethoxy]ethoxy]acetyl]amino]butanoyl]-[Aib2,Leu10,Glu15,Arg20,Glu21,Leu27,Lys28]-Glucagon amide] (H-H[Aib]QGTFTSDLSKYLESRRAREFVQWLLK([γGlu-AEEA-AEEA-γGlu-γGlu-C18 diacid])T-NH2; N-terminus assumed) and `CC(C)C[C@H](NC(=O)[C@H](Cc1ccc(O)cc1)NC(=O)[C@H](CCCCN)NC(=O)[C@H](CO)NC(=O)[C@H](CC(C)C)NC(=O)[C@H](CC(=O)O)NC(=O)[C@H](CO)NC(=O)[C@@H](NC(=O)[C@H](Cc1ccccc1)NC(=O)[C@@H](NC(=O)CNC(=O)[C@H](CCC(N)=O)NC(=O)C(C)(C)NC(=O)[C@@H](N)Cc1c[nH]cn1)[C@@H](C)O)[C@@H](C)O)C(=O)N[C@@H](CC(=O)O)C(=O)N[C@@H](CCCCNC(=O)CC[C@H](NC(=O)CC[C@H](NC(=O)COCCOCCNC(=O)COCCOCCNC(=O)CC[C@H](NC(=O)CCCCCCCCCCCCCCCCC(=O)O)C(=O)O)C(=O)O)C(=O)O)C(=O)N[C@@H](CCCNC(=N)N)C(=O)N[C@@H](CCCNC(=N)N)C(=O)N[C@@H](C)C(=O)N[C@@H](CCCNC(=N)N)C(=O)N[C@@H](CCC(=O)O)C(=O)N[C@@H](Cc1ccccc1)C(=O)N[C@H](C(=O)N[C@@H](CCC(N)=O)C(=O)N[C@@H](Cc1c[nH]c2ccccc12)C(=O)N[C@@H](CC(C)C)C(=O)N[C@@H](CC(C)C)C(=O)N[C@@H](CC(N)=O)C(=O)N[C@H](C(N)=O)[C@@H](C)O)C(C)C` [Example 10, N^ε16-[(4S)-4-carboxy-4-[[(4S)-4-carboxy-4-[[2-[2-[2-[[2-[2-[2-[[(4S)-4-carboxy-4-(17-carboxyheptadecanoylamino)butanoyl]amino]ethoxy]ethoxy]acetyl]amino]ethoxy]ethoxy]acetyl]amino]butanoyl]amino]butanoyl]-[Aib2,Leu10,Lys16,Arg20,Glu21,Leu27]-Glucagon amide] (H-H[Aib]QGTFTSDLSKYLDK([γGlu-γGlu-AEEA-AEEA-γGlu-C18 diacid])RRAREFVQWLLNT-NH2; N-terminus assumed) are within 1.5-fold of each other in THT assay Lag time (Ex. 76): 6 h for the first, 7 h for the second.

With `CC(C)C[C@H](NC(=O)[C@H](Cc1ccc(O)cc1)NC(=O)[C@H](CCCCN)NC(=O)[C@H](CO)NC(=O)[C@H](CC(C)C)NC(=O)[C@H](CC(=O)O)NC(=O)[C@H](CO)NC(=O)[C@@H](NC(=O)[C@H](Cc1ccccc1)NC(=O)[C@@H](NC(=O)CNC(=O)[C@H](CCC(N)=O)NC(=O)C1(NC(=O)[C@@H](N)Cc2c[nH]cn2)CCC1)[C@@H](C)O)[C@@H](C)O)C(=O)N[C@@H](CCC(=O)O)C(=O)N[C@@H](CO)C(=O)N[C@@H](CCCNC(=N)N)C(=O)N[C@@H](CCCNC(=N)N)C(=O)N[C@@H](C)C(=O)N[C@@H](CCCNC(=N)N)C(=O)N[C@@H](CCC(=O)O)C(=O)N[C@@H](Cc1ccccc1)C(=O)N[C@H](C(=O)N[C@@H](CCC(N)=O)C(=O)N[C@@H](Cc1c[nH]c2ccccc12)C(=O)N[C@@H](CC(C)C)C(=O)N[C@@H](CC(C)C)C(=O)N[C@@H](CCCCNC(=O)CC[C@H](NC(=O)CC[C@H](NC(=O)COCCOCCNC(=O)COCCOCCNC(=O)CC[C@H](NC(=O)CC[C@H](NC(=O)CCCCCCCCCCCCCCCCC(=O)O)C(=O)O)C(=O)O)C(=O)O)C(=O)O)C(=O)N[C@H](C(N)=O)[C@@H](C)O)C(C)C` [Example 61, N^ε28-[(4S)-4-carboxy-4-[[(4S)-4-carboxy-4-[[2-[2-[2-[[2-[2-[2-[[(4S)-4-carboxy-4-[[(4S)-4-carboxy-4-(17-carboxyheptadecanoylamino)butanoyl]amino]butanoyl]amino]ethoxy]ethoxy]acetyl]amino]ethoxy]ethoxy]acetyl]amino]butanoyl]amino]butanoyl]-[Acb2,Leu10,Glu15,Arg20,Glu21,Leu27,Lys28]-Glucagon amide] (H-H[Ac4c]QGTFTSDLSKYLESRRAREFVQWLLK([γGlu-γGlu-AEEA-AEEA-γGlu-γGlu-C18 diacid])T-NH2; N-terminus assumed) the THT assay Lag time (Ex. 76) was 20 h.
